Test systems include SF-539; OVCAR-8; HT-29; UACC-62; NCI-H23; SN12C; HCC 2998; MDA-N; HOP-62; HCT-116; TK-10; NCI-H522; EKVX; MDA-MB-231; NCI-H460; UO-31; M14; PC-3; SR.
Holding throughout (assay): NCI anticancer screen, dose series, 48 h

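Five compound concentrations were applied to cells in 96-well plates for 48 hours; endpoints were derived by simple linear interpolation of the resulting dose-response curve. GI50 marks 50% less growth.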 The source made the active and inactive calls. No stated cut-off is given here; in the data, active = GI50 up to about 1.1 µM and inactive = higher.

In the case of `O=c1c2cc(I)ccc2nc(Sc2ccc([N+](=O)[O-])cc2[N+](=O)[O-])n1Cc1ccccc1`, the GI50 is 2.25 µM (inactive) in the assay with SF-539; 1.6 µM (inactive) in the assay with OVCAR-8; 3.24 µM (inactive) in the assay with HT-29; 2.29 µM (inactive) in the assay on UACC-62; 3.02 µM (inactive) with NCI-H23; 1.46 µM (inactive) in the assay with SN12C. The GI50 in the assay on HCC 2998 is 2.92 µM (inactive); with MDA-N, 1.52 µM (inactive); with HOP-62, 2.93 µM (inactive); with HCT-116, 1.26 µM (inactive); in the assay with TK-10, 7.59 µM (inactive); in the assay on NCI-H522 it was 1.04 µM (active). The GI50 in the assay on EKVX is 3.55 µM (inactive); with MDA-MB-231, 5.22 µM (inactive); with NCI-H460, 4.24 µM (inactive); in the assay on UO-31, 2.26 µM (inactive); with M14 it was 1.94 µM (inactive); with PC-3, 2.89 µM (inactive). In the assay on SR, the GI50 was 0.394 µM (active).
For `COc1cc(CNc2nc3ccccc3nc2-c2cccs2)cc(OC)c1OC`, the GI50 in the assay on SF-539 is 78.5 µM (inactive); in the assay on OVCAR-8, 14.3 µM (inactive); in the assay with HT-29, 26.9 µM (inactive); with UACC-62, 13.7 µM (inactive); in the assay on NCI-H23 it was 14.5 µM (inactive); in the assay on SN12C it was 12.9 µM (inactive). Moreover, the GI50 in the assay on HCC 2998 is 39.1 µM (inactive); in the assay with MDA-N, 16.3 µM (inactive); with HOP-62, 21.4 µM (inactive); in the assay on HCT-116, 22.9 µM (inactive); in the assay with TK-10, 33.8 µM (inactive); in the assay on NCI-H522, 14 µM (inactive). Also, the GI50 in the assay on EKVX was 29.6 µM (inactive); in the assay on MDA-MB-231 it was 17.6 µM (inactive); with NCI-H460, 10.5 µM (inactive); in the assay with UO-31, 5.09 µM (inactive); with PC-3 it was 11.6 µM (inactive); in the assay with SR it was 6.87 µM (inactive).
Regarding `Cc1cc(C#N)c(Nc2ccccc2[N+](=O)[O-])s1`, the GI50 in the assay on SF-539 is 27.7 µM (inactive); with OVCAR-8, 31 µM (inactive); with UACC-62 it was 54.2 µM (inactive); with NCI-H23, 26.1 µM (inactive); in the assay with SN12C, 19.2 µM (inactive); in the assay on HCC 2998 it was 40.8 µM (inactive). The GI50 in the assay with MDA-N was 14.9 µM (inactive); with HOP-62, 24.3 µM (inactive); in the assay on HCT-116 it was 23.8 µM (inactive); in the assay on NCI-H522, 19.8 µM (inactive); in the assay on EKVX it was 22.3 µM (inactive); with MDA-MB-231, 24.7 µM (inactive). Further, the GI50 with NCI-H460 was 36.6 µM (inactive); in the assay on UO-31, 39.7 µM (inactive); in the assay on M14, 32.8 µM (inactive); in the assay with PC-3, 23.8 µM (inactive); in the assay with SR, 40.2 µM (inactive).
As for `C=C(C)[C@H]1C[C@@H]2O[C@@](O)(/C(C)=C\C(=O)/C=C(/C)C[C@H]3OC(=O)[C@@]24O[C@H]34)[C@@H]1O`, the GI50 with SF-539, in the assay on OVCAR-8, with HT-29, in the assay on UACC-62, in the assay with SN12C and in the assay on HCC 2998 was > 100 µM (inactive) each time. In addition, the GI50 with MDA-N, in the assay on HCT-116, in the assay on TK-10, in the assay on NCI-H522, in the assay on EKVX and in the assay with MDA-MB-231 was > 100 µM (inactive) in each case. Also, the GI50 in the assay on NCI-H460 was > 100 µM (inactive); with M14, > 100 µM (inactive); with PC-3, > 100 µM (inactive); with SR it was 47.4 µM (inactive).
Consider `O=[N+]([O-])c1ccc(CSc2nncc3[nH]cnc23)cc1`, for which the GI50 with SF-539 is > 100 µM (inactive); with OVCAR-8, > 100 µM (inactive); with HT-29, > 100 µM (inactive); in the assay with UACC-62, 62.4 µM (inactive); in the assay on NCI-H23 it was > 100 µM (inactive); in the assay with SN12C, > 100 µM (inactive). Besides, the GI50 in the assay on HCC 2998, in the assay on MDA-N, in the assay with HOP-62, with HCT-116, in the assay on TK-10 and with NCI-H522 was > 100 µM (inactive) each time. Further, the GI50 is > 100 µM (inactive) with EKVX; > 100 µM (inactive) in the assay on MDA-MB-231; 33.4 µM (inactive) in the assay with UO-31; > 100 µM (inactive) with M14; > 100 µM (inactive) with PC-3; > 100 µM (inactive) with SR.
In the case of `NC(=O)NC(=O)c1cccc(CNc2ccc(C(=O)N[C@@H](CCC(=O)O)C(=O)O)cc2)n1`, the GI50 in the assay on SF-539 is > 100 µM (inactive); in the assay on OVCAR-8, > 100 µM (inactive); with HT-29 it was > 100 µM (inactive); in the assay on UACC-62, 4 µM (inactive); in the assay on NCI-H23 it was > 100 µM (inactive); with SN12C, > 100 µM (inactive). In addition, the GI50 in the assay on HCC 2998, in the assay on MDA-N, in the assay on HCT-116, in the assay on TK-10, in the assay on NCI-H522 and in the assay with EKVX was > 100 µM (inactive) each time. Besides, the GI50 with MDA-MB-231, in the assay on NCI-H460, in the assay on UO-31, in the assay on M14, in the assay with PC-3 and with SR was > 100 µM (inactive) throughout.
Take `CCN(CC)c1ccc2cc(C(=O)Nc3cccc4ccccc34)c(=N)oc2c1`: the GI50 in the assay on SF-539 is 72.9 µM (inactive); in the assay on OVCAR-8 it was > 100 µM (inactive); with HT-29 it was > 100 µM (inactive); in the assay on UACC-62 it was 63.4 µM (inactive); with SN12C, > 100 µM (inactive); in the assay on HCC 2998 it was > 100 µM (inactive). The GI50 with MDA-N is > 100 µM (inactive); in the assay on HOP-62, > 10 µM (inactive); in the assay with HCT-116, > 100 µM (inactive); in the assay with TK-10, > 100 µM (inactive); in the assay with NCI-H522, 64 µM (inactive); in the assay with EKVX it was > 100 µM (inactive). Moreover, the GI50 with MDA-MB-231 was > 100 µM (inactive); in the assay on NCI-H460 it was 89.5 µM (inactive); in the assay with UO-31, > 100 µM (inactive); in the assay with M14, 38.8 µM (inactive); in the assay with PC-3, > 100 µM (inactive); in the assay on SR, 7.96 µM (inactive).
Take `C=CC1(C)CCC2C(=CCC3C2(C)CC(O)C(O)C3(C)COC2OC(CO)C(O)C(O)C2O)C1` (configuration not stated): the GI50 in the assay on SF-539, with OVCAR-8, in the assay with HT-29, in the assay on UACC-62, with NCI-H23 and with SN12C was > 100 µM (inactive) in each case. The GI50 with HCC 2998, with MDA-N, in the assay on HCT-116, with TK-10, with NCI-H522 and in the assay with EKVX was > 100 µM (inactive) in each case. The GI50 with MDA-MB-231 was > 100 µM (inactive); in the assay on NCI-H460, 87.9 µM (inactive); with UO-31, > 100 µM (inactive); in the assay with M14, > 100 µM (inactive); with PC-3, > 100 µM (inactive); with SR, 41.4 µM (inactive).
